Results from ChEMBL document CHEMBL1201862, “PubChem BioAssay data set” (2004).
The source made the active and inactive calls.

Assays:
Fatty acid synthase [1] = molecular target: T1, Fatty acid synthase (Homo sapiens, UniProt P49327); assay: FAS thioesterase domain inhibitors, dose response, biochemical, kinetic fluorescence intensity (AID 624326); format: functional;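 note: rate of fluorescence rise from hydrolysis of a fluorogenic O-methyl fluorescein ester substrate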
Fatty acid synthase [2] = molecular target: T1, Fatty acid synthase; assay: FAS thioesterase domain inhibitors, dose response, biochemical, endpoint fluorescence intensity, uHTS hits (AID 624327); format: functional;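 note: fluorescence from hydrolysis of an O-methyl fluorescein acyl ester substrate by the enzyme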
[3] = molecular target: T2, Replicative DNA helicase DnaB (Mycobacterium tuberculosis, UniProt P9WMR3); assay: DnaB intein splicing inhibitors, dose response, biochemical, cell-free fluorescence (AID 449749); format: functional
T2 sequence (P9WMR3 whole entry): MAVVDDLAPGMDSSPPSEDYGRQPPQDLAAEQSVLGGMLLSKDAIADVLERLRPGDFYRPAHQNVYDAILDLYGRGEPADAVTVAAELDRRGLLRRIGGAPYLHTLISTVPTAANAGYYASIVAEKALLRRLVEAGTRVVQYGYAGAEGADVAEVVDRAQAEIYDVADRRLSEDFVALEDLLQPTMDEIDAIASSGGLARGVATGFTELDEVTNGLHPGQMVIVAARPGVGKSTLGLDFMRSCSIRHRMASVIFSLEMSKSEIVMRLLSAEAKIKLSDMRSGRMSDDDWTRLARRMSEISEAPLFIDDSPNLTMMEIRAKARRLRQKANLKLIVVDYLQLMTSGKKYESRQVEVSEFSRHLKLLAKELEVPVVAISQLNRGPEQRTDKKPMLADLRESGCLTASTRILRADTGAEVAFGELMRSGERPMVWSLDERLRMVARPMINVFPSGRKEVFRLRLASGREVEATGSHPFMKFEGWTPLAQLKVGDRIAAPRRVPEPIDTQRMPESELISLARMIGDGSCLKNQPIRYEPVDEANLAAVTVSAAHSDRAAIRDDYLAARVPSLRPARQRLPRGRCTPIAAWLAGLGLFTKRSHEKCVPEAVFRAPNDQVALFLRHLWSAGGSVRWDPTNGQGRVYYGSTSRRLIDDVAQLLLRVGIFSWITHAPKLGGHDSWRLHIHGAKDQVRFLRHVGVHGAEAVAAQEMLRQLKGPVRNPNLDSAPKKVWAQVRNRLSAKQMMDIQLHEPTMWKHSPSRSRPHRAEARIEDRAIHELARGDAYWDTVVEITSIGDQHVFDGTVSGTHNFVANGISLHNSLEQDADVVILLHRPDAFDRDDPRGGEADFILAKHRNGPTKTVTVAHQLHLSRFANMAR

[4] = molecular target: G-protein coupled receptor 55 (Homo sapiens, UniProt Q9Y2T6); assay: GPR55 antagonists blocking LPI-driven arrestin recruitment, primary screen, imaging, U2OS, beta-arrestin-GFP, LPI agonist (AID 2013); format: functional;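 note: antagonist potency measured as reduced agonist-driven arrestin aggregation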
Protein RecA = molecular target: T3, Protein RecA (Mycobacterium tuberculosis, UniProt P9WHJ3); assay: Fluorescence Cell-Free Homogeneous Dose Retest to Identify Inhibitors of RecA-Intein Splicing Activity. [Related pubchem assays (depositor defined):AID2097, AID2223, AID489010, AID492950]; format: functional
T3 sequence (P9WHJ3 whole entry): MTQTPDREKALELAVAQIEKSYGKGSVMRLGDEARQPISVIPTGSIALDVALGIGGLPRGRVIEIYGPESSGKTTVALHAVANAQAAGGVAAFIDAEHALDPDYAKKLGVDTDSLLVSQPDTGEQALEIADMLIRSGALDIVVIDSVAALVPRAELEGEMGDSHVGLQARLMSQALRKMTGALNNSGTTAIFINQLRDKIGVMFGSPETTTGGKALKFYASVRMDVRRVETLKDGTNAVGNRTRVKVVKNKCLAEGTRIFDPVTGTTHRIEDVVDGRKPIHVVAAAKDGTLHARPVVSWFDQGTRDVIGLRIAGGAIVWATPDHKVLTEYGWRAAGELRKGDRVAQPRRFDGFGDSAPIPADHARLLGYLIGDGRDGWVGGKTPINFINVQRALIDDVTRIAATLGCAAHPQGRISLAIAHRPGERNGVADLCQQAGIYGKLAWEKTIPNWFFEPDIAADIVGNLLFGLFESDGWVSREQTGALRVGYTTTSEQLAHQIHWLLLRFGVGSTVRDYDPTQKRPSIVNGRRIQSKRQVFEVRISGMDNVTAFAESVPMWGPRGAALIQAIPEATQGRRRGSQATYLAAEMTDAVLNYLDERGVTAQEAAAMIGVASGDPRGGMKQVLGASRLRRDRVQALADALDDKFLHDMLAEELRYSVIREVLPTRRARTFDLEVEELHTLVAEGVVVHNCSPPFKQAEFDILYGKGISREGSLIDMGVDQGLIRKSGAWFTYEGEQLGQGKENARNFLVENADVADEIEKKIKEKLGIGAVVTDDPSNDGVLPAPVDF

[5] = molecular target: T4, Alkaline phosphatase, tissue-nonspecific isozyme (Homo sapiens, UniProt P05186); assay: human TNAP enzyme inhibitors, SAR follow-up, biochemical, luminescent, dose response (AID 1056)
T4 sequence (P05186 whole entry): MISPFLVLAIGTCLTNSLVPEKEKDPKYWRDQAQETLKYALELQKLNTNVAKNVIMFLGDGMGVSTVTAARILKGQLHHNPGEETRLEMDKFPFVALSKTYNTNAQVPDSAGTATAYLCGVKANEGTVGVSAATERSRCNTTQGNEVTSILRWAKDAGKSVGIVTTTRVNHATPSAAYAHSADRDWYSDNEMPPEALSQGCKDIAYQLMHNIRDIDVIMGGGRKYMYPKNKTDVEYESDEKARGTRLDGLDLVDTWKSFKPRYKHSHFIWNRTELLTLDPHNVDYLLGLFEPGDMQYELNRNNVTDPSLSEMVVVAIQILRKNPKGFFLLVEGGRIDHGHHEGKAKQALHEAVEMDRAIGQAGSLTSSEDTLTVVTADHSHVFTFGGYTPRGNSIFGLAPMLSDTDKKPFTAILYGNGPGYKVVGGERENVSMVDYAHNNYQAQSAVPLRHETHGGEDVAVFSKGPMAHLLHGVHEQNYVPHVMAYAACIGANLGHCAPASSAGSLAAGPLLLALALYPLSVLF

T1 sequence (P49327 whole entry, the tested form may be a part): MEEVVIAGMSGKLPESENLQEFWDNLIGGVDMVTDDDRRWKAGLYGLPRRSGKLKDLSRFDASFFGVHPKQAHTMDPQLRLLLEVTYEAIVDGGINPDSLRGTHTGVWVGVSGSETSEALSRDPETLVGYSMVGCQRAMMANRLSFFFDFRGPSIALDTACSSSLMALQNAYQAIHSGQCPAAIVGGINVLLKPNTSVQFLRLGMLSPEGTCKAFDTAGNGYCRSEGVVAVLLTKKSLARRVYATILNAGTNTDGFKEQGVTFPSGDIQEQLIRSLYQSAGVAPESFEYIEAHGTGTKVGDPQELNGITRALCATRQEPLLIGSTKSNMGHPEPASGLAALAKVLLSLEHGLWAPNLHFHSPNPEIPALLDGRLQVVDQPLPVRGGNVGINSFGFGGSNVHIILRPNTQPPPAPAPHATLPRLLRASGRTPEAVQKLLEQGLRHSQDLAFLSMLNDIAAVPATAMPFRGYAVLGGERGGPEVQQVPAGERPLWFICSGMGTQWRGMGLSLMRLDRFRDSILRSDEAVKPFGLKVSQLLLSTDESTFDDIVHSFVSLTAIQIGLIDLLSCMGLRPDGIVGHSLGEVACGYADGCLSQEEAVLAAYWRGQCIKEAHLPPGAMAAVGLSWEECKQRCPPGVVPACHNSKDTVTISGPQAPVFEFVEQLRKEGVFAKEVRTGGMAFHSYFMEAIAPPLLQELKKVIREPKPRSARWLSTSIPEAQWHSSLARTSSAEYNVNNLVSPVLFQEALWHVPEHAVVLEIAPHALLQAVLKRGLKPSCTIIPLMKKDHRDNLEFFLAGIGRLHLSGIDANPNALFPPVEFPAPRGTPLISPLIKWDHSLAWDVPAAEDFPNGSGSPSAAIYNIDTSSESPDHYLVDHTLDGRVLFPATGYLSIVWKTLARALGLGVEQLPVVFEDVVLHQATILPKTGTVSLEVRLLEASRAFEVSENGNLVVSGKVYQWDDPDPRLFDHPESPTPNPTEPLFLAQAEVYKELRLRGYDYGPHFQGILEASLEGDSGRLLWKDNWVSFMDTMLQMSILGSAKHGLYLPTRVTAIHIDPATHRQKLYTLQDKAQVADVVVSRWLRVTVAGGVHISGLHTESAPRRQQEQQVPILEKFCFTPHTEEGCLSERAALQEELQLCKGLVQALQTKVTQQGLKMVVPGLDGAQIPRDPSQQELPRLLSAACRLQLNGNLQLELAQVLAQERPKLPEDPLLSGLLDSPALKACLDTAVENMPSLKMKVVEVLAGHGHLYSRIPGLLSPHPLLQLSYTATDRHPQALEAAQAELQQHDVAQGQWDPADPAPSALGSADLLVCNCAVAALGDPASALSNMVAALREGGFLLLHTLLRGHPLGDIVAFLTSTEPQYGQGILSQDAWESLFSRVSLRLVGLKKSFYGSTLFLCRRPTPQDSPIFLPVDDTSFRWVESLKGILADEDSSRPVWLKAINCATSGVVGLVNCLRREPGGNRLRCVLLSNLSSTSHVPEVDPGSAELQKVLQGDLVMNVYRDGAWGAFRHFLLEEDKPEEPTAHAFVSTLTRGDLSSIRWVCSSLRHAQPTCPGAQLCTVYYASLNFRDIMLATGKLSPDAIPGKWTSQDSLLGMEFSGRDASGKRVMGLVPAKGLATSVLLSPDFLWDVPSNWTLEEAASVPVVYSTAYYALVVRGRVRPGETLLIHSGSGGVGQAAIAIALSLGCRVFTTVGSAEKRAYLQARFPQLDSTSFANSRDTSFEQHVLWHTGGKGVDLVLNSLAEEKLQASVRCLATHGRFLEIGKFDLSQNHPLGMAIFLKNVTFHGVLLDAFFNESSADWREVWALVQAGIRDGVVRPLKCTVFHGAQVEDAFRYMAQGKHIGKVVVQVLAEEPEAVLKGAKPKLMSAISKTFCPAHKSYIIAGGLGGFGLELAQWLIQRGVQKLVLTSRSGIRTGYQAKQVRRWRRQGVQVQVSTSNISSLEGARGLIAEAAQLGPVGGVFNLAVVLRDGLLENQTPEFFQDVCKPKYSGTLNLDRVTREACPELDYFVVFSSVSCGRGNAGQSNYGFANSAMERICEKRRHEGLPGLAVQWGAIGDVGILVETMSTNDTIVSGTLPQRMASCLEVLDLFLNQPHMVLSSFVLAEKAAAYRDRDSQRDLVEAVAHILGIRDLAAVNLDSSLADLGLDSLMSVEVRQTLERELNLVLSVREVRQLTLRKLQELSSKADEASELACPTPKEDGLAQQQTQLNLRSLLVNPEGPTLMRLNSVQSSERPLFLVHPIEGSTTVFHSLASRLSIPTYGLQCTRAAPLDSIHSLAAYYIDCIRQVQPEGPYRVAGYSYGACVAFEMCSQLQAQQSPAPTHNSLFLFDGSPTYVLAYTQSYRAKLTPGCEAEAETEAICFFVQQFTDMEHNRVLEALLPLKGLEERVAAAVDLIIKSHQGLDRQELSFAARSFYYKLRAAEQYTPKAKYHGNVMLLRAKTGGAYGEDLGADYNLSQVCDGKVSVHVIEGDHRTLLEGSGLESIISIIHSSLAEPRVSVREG
Sequence of G-protein coupled receptor 55 (Q9Y2T6 whole entry): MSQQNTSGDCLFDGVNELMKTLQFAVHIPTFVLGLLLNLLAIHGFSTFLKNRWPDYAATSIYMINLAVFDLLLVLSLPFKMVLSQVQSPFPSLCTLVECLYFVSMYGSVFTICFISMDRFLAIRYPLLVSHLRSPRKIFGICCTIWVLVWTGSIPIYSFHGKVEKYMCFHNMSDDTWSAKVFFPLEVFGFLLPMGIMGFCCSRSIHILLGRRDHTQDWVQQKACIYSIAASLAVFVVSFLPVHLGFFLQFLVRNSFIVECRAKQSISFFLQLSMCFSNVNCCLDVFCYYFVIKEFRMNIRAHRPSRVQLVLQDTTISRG

O=C(Nc1ccc(Cl)cc1)C(Cl)C(=O)c1ccccc1 (stereo unspecified)
active: IC50 (Fatty acid synthase [1]) 4.67 µM | IC50 (Fatty acid synthase [2]) 4.3 µM | AC50 [3] 5.89 µM | IC50 [4] 1.07 µM | EC50 (Protein RecA) 30.3 µM

O=C(O)c1[nH]nc2c1COc1ccccc1-2
active: IC50 [5] 1.31 µM
